Data published in PubChem BioAssay (NCI).
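1) Cells in 96-well plates. 2) Compound, 48 h, 5 concentrations. 3) Linear interpolation between surrounding doses. 4) Unreached endpoint = highest concentration. TGI is the concentration that stops growth completely.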

Tests used:
Experiment in all cases: inhibition of tumour cell growth, NCI panel, 48 h
IGROV1 ovarian = test system: IGROV1 ovarian
UO-31 renal = test system: UO-31 renal
SW-620 colon = test system: SW-620 colon
OVCAR-3 ovarian = test system: OVCAR-3 ovarian
PC-3 prostate = test system: PC-3 prostate
OVCAR-4 ovarian = test system: OVCAR-4 ovarian
HCT-15 colon = test system: HCT-15 colon
SF-295 CNS = test system: SF-295 CNS
A498 renal = test system: A498 renal

| SMILES | TGI (IGROV1 ovarian) | TGI (UO-31 renal) | TGI (SW-620 colon) | TGI (OVCAR-3 ovarian) | TGI (PC-3 prostate) | TGI (OVCAR-4 ovarian) | TGI (HCT-15 colon) | TGI (SF-295 CNS) | TGI (A498 renal) |
| --- | --- | --- | --- | --- | --- | --- | --- | --- | --- |
| Cc1c2c(n(CCN(C)C)c1C)NN=C(C#N)S2(=O)=O | > 100 µM | > 100 µM | > 100 µM | > 100 µM | > 100 µM | > 100 µM | > 100 µM |  |  |
| CN1CCC23c4c5ccc(O)c4OC2c2[nH]c4ccccc4c2CC3(O)C1C5 (stereo unspecified) | > 100 µM | 30.9 µM | > 100 µM | > 100 µM | > 100 µM | > 100 µM | > 100 µM | > 100 µM | 38 µM |
| CN(CCCNC(=O)c1nn(-c2ccc(Cl)cc2Cl)c2c1ccc1ccccc12)CCCNC(=O)c1nn(-c2ccc(Cl)cc2Cl)c2c1ccc1ccccc12 | 3.2 µM |  |  | 3.14 µM | 3.08 µM | 3.21 µM | 3.24 µM | 3.06 µM | 2.77 µM |
| COc1c(O)c2c(=O)cc(OC)c3c4c(OC)cc(=O)c5c(O)c(OC)c6c(c(c1C(C(C)=O)C6C(C)O)c23)c54 (stereo unspecified) | 1 µM | 1.03 µM | 0.469 µM | 0.442 µM | 0.971 µM |  | 2.25 µM | 2.05 µM | 28.3 µM |
| O=[N+]([O-])/C(C(Cl)=C(Cl)Cl)=C(/Sc1ccccc1)N1CCCCC1 | > 100 µM | > 100 µM | > 100 µM | > 100 µM | > 100 µM | > 100 µM | > 100 µM | > 100 µM | > 100 µM |
| COc1cccc(C2C3=C(COC3=O)Oc3cc4c(cc32)OCO4)c1 (stereo unspecified) | > 64.9 µM | > 100 µM | > 100 µM | 0.43 µM | > 100 µM | > 100 µM | > 42.4 µM | 0.228 µM | 1.27 µM |
| COC(=O)c1ccccc1/C=C1\Cc2cc(C)c(C)cc2C1=O | > 100 µM | > 100 µM | > 100 µM | > 100 µM | > 100 µM | > 100 µM | > 100 µM | > 100 µM | > 100 µM |
| N#CC(Cc1ccccc1Br)N(CCC1=CCCCC1)C(c1ccccc1)c1ccccc1 (stereo unspecified) | > 100 µM | > 100 µM | > 100 µM | > 100 µM | > 100 µM | > 100 µM | > 100 µM | > 100 µM | > 100 µM |
| COc1cc(/C=C/c2cc(/C=C/c3ccc(O)c(OC)c3)oc(=O)c2)ccc1O | 19.9 µM | > 100 µM | > 24.5 µM | 5.68 µM | 20.3 µM | 13.6 µM | > 34.4 µM | 19.4 µM | 13.6 µM |
| COc1cc2c(cc1OC)C(N)CC2=O (stereo unspecified) | > 100 µM | > 100 µM | > 100 µM | > 100 µM | > 100 µM | > 100 µM | > 100 µM | > 100 µM | > 100 µM |
| COc1cc(O)c2c(=O)cc(C3(O)C=CC(=O)C=C3)oc2c1 | 0.0328 µM | 0.993 µM | 0.0663 µM |  | 1.37 µM | 3.35 µM | 1.11 µM | 2.09 µM | 11.1 µM |
| CCOC(=O)/C=C(/C(=O)OCC)n1ccc(=O)n(/C(=C/C(=O)OCC)C(=O)OCC)c1=O | 31.4 µM | 28.9 µM | 4.07 µM | 16.9 µM | 29 µM | 30.6 µM | 6.32 µM | 55.1 µM | 38.8 µM |
| Cc1ccc(/C=C/C(=O)c2cc(CN(C)C)c(O)c(CN(C)C)c2)cc1 | > 100 µM | 60 µM | 38.2 µM | 69.5 µM | 36.8 µM |  | 45.4 µM | 27.7 µM | 95.5 µM |
| O=C(/C=C/c1ccc(O)c(O)c1O)OCCc1ccccc1 | 84.5 µM | 78.1 µM | 49.2 µM | 46.5 µM | > 100 µM | 29.5 µM | 51.9 µM | 35.5 µM | > 100 µM |
| O=C=NCCCCCCN1C(=O)N2C(c3ccccc3)N(CCCCCCN=C=O)C(=O)N2C1c1ccccc1 (stereo unspecified) | > 100 µM | > 100 µM | > 100 µM | > 100 µM | > 100 µM | > 100 µM | > 100 µM | > 100 µM | > 100 µM |
| O=C1NC(N2CCCC(CO)C2)=N/C1=C\c1ccc(Cl)cc1 (stereo unspecified) | > 100 µM | > 100 µM | > 100 µM | > 100 µM | > 100 µM | > 100 µM | > 100 µM | > 100 µM |  |
| CC1(C)CC(=O)c2c(nc(SSc3nc4c(c(-c5ccccc5)c3C#N)C(=O)CC(C)(C)C4)c(C#N)c2-c2ccccc2)C1 | > 10 µM | > 10 µM | > 10 µM | > 10 µM | > 10 µM | > 10 µM | > 10 µM | > 10 µM | > 10 µM |
| C=CCNC1=C2C[C@@H](C)C[C@@H](OC)[C@H](OC(=O)CN)[C@H](C)/C=C(\C)[C@@H](OC(N)=O)[C@H](OC)/C=C\C=C(/C)C(=O)NC(=CC1=O)C2=O | 15.5 µM | 19.7 µM | > 100 µM | 7.41 µM | 11.9 µM | 29.2 µM | 22.5 µM | 12.6 µM | 28.4 µM |
| COc1cc(N(CCC#N)CCC#N)ccc1/C(N=Nc1ccccc1)=N/NC(=O)c1cc(Br)ccc1O | 35 µM | 57.5 µM | > 100 µM | 83.5 µM | > 100 µM | 64.4 µM | 68.2 µM | > 100 µM |  |
| COc1ccc(/C=C2\N=C(NN)N=C2Cl)cc1 | > 100 µM | > 100 µM | > 100 µM | > 100 µM | > 100 µM | > 100 µM | > 100 µM | > 100 µM | > 100 µM |
| Cc1cn(C2CC(N)C(C(=O)O)O2)c(=O)[nH]c1=O (stereo unspecified) | > 100 µM | > 100 µM | > 100 µM | > 100 µM | > 100 µM | > 100 µM | > 100 µM |  | > 100 µM |
| CC#CCCN(CC#N)Cc1ccccc1 | > 100 µM | > 100 µM |  |  | > 100 µM | > 100 µM | > 100 µM | > 100 µM | 37.2 µM |
